Experiments:
[1] = tested on: transformed human keratinocyte cell line (FEP 1811); experiment: Clonogenic survival cell culture assay for radioprotective activity (cells irradiated to 12 Gy); type: cell-based; conditions: FEP 1811 cells, 12 Gy 137Cs gamma at 0.6 Gy per minute, irradiation started 30 minutes after drug addition, total drug exposure 60 minutes
Experimental: (§1) The assay involves the transformed human keratinocyte cell line (FEP 1811) (as described by Smith et al (6)) and evaluation of cytotoxicity and radioprotective activity using the clonogenic survival endpoint. The details are described in detail in Martin et al (4) (the disclosure of which is included herein in its entirety by way of reference), but briefly, mid-log phase monolayer cultures are incubated with various concentrations of the test drugs for one hour, after which the monolayers are washed and dispersed into single cell suspensions using pronase, and finally appropriate numbers of cells are dispensed into Petri dishes. Colonies are counted after eight days incubation. For radioprotection studies, the monolayer cultures are irradiated in a ^137Cs-Gamma-cell radiation source to a dose of 12 Gy. The irradiation (with a dose rate of 0.6 Gy per minute) is started 30 minutes after addition of the test drug. After completion of irradiation, incubation of cultures is continued until the total time of exposure to the drug reaches 60 minutes. Cultures are then washed and plated for clonogenic survival as described for the cytotoxicity experiments. The experiments include untreated cultures as controls, and the plating efficiency of these controls is used to adjust that of the test cultures, in order to calculate the overall clonogenic survival.
However, for some of the compounds, the survival decreases at higher drug concentrations, due to cytotoxicity. Non-linear regression analysis of the data, for example that in FIG. 2, generates a parameter denoted the protection factor (PF), which is the ratio of the maximum survival to the radiation-only (zero drug) survival. PF is therefore a measure of radioprotective efficacy. The C50 and PF values, and for a number of the compounds are collected in Table 1, with standard deviations (SD) for those compounds that have been studied in replicate experiments.

[2] = tested on: transformed human keratinocyte cell line (FEP 1811); experiment: Clonogenic survival cell culture assay for cytotoxicity (un-irradiated cells); type: cell-based; conditions: un-irradiated FEP 1811 cells, one hour drug incubation, colonies counted after eight days; concentrations in FIG. 1 plotted in μM; read-out: cytotoxicity C50 (drug concentration corresponding to 50% survival)
Experimental: as §1
In general each experiment involves investigation of 4 or 5 different test concentrations of the drug under study, with and without irradiation. The data analysis for the experiments with un-irradiated cells generates curves showing the relationship between cell survival and drug concentration (FIG. 1), from which the drug concentration corresponding to 50% survival (C50) is determined.

SMILES	radioprotection PF (protection factor: ratio of the maximum survival to the radiation-only (zero drug) survival) [1]	IC50 [2]
Cc1cc(N(C)C)ccc1-c1nc2ccc(-c3nc4ccc(N5CCN(C)CC5)cc4[nH]3)cc2[nH]1 [methylproamine, reference compound]	10	19.3 µM
COc1ccc(-c2nc3cc(-c4nc5cc(N6CCN(C)CC6)ccc5[nH]4)ccc3[nH]2)cc1F [Example 5, 3-fluoro-4-methoxy-1-(5′-(5″-(4′″-methylpiperazin-1′″-yl)benzimidazol-2″-yl)benzimidazol-2′-yl)benzene]	2.1	91 µM
CN1CCN(c2ccc3[nH]c(-c4ccc5[nH]c(-c6ccc(N(C)C)cc6Cl)nc5c4)nc3c2)CC1 [Example 4, 2-chloro-4-dimethylamino-1-(5′-(5″-(4′″-methylpiperazin-1′″-yl)benzimidazol-2″-yl)benzimidazol-2′-yl)benzene]	5.5	18 µM
CN1CCN(c2ccc3[nH]c(-c4ccc5[nH]c(-c6ccc(N(C)C)cc6F)nc5c4)nc3c2)CC1 [Example 1, 4-dimethylamino-2-fluoro-1-(5′-(5″-(4′″-methylpiperazin-1′″-yl)benzimidazol-2″-yl)benzimidazol-2′-yl)benzene]	9.3	28 µM
CNc1ccc(-c2nc3cc(-c4nc5cc(N6CCN(C)CC6)ccc5[nH]4)ccc3[nH]2)c(F)c1 [Example 3, 2-fluoro-4-methylamino-1-(5′-(5″-(4′″-methylpiperazin-1′″-yl)benzimidazol-2″-yl)benzimidazol-2′-yl)benzene]	7	218 µM
CN1CCN(c2ccc3[nH]c(-c4ccc5[nH]c(-c6c(F)cc(N(C)C)cc6F)nc5c4)nc3c2)CC1 [Example 2, 2,6-difluoro-4-dimethylamino-1-(5′-(5″-(4′″-methylpiperazin-1′″-yl)benzimidazol-2″-yl)benzimidazol-2′-yl)benzene]	6.4	25 µM
CN1CCN(c2ccc3[nH]c(-c4ccc5[nH]c(-c6cc(N(C)C)ccc6F)nc5c4)nc3c2)CC1 [Example 9, 5-dimethylamino-2-fluoro-1-(5′-(5″-(4′″-methylpiperazin-1′″-yl)benzimidazol-2″-yl)benzimidazol-2′-yl)benzene]	16.7	21.9 µM
CN1CCN(c2ccc3[nH]c(-c4ccc5[nH]c(-c6ccc(N(C)C)c(F)c6)nc5c4)nc3c2)CC1 [Example 7, 4-dimethylamino-3-fluoro-1-(5′-(5″-(4′″-methylpiperazin-1′″-yl)benzimidazol-2″-yl)benzimidazol-2′-yl)benzene]	3.2	26 µM
CNc1cc(F)c(-c2nc3cc(-c4nc5cc(N6CCN(C)CC6)ccc5[nH]4)ccc3[nH]2)cc1F [Example 10, 2,5-difluoro-4-methylamino-1-(5′-(5″-(4′″-methylpiperazin-1′″-yl)benzimidazol-2″-yl)benzimidazol-2′-yl)benzene]	9.62	51.4 µM
CN1CCN(c2ccc3[nH]c(-c4ccc5[nH]c(-c6ccc(F)cc6)nc5c4)nc3c2)CC1 [Example 6, 4-fluoro-1-{5′-[5″-(4′″-methylpiperazin-1′″-yl)benzimidazol-2″-yl]benzimidazol-2′-yl}benzene]	4.5	34 µM
CNc1ccc(F)c(-c2nc3cc(-c4nc5cc(N6CCN(C)CC6)ccc5[nH]4)ccc3[nH]2)c1 [Example 8, 2-fluoro-5-methylamino-1-(5′-(5″-(4′″-methylpiperazin-1′″-yl)benzimidazol-2″-yl)benzimidazol-2′-yl)benzene]	15.5	151 µM
